# Experimental data as given in patent publication US10279022B2, “Peptides and combination of peptides for use in immunotherapy against various cancers” (immatics biotechnologies GmbH, priority 2015, dated 2019).
# Assays:
# HLA-A*02 = HLA-A*02 (Homo sapiens, UniProt P04439, D140Y/D185E/D98H/E176V/E277Q/G131W/G231S/I119V/I121R/I166T/I218V/L300P/N151K/N90K/P208A/P217A/Q86G/Q94H/R138H/R169H); assay: MHC binding assay by UV-ligand exchange and beta2m ELISA (HLA-A*02); details: peptide exchange yield, binding to HLA-A*02; UV-ligand exchange, beta2m ELISA
# Source text: (§1) Candidate peptides for T cell based therapies according to the present invention were further tested for their MHC binding capacity (affinity). The individual peptide-MHC complexes were produced by UV-ligand exchange, where a UV-sensitive peptide is cleaved upon UV-irradiation, and exchanged with the peptide of interest as analyzed. Only peptide candidates that can effectively bind and stabilize the peptide-receptive MHC molecules prevent dissociation of the MHC complexes. To determine the yield of the exchange reaction, an ELISA was performed based on the detection of the light chain (β2m) of stabilized MHC complexes. The assay was performed as generally described in Rodenko et al. (Rodenko et al., 2006).
# (§2) 96 well MAXISorp plates (NUNC) were coated over night with 2 ug/ml streptavidin in PBS at room temperature, washed 4× and blocked for 1 h at 37° C. in 2% BSA containing blocking buffer. Refolded HLA-A*02:01/MLA-001 monomers served as standards, covering the range of 15-500 ng/ml. Peptide-MHC monomers of the UV-exchange reaction were diluted 100 fold in blocking buffer. Samples were incubated for 1 h at 37° C., washed four times, incubated with 2 ug/ml HRP conjugated anti-β2m for 1 h at 37° C., washed again and detected with TMB solution that is stopped with […]. Absorption was measured at 450 nm. Candidate peptides that show a high exchange yield (preferably higher than 50%, most preferred higher than 75%) are generally preferred for a generation and production of antibodies or fragments thereof, and/or T cell receptors or fragments thereof, as they show sufficient avidity to the MHC molecules and prevent dissociation of the MHC complexes.
# CD8+ T cells = assay: In vitro T-cell priming assay (aAPCs loaded with peptide/MHC and anti-CD28), pMHC multimer readout; type: cell-based, human; details: for Wells positive [%]: in vitro immunogenicity of HLA class I peptides, peptide specific pMHC multimer staining after three stimulation cycles; for in vitro immunogenicity: Wells: positive wells, HLA-A*02 and HLA-A*24 peptides, healthy donors
# Source text: In order to obtain information regarding the immunogenicity of the TUMAPs of the present invention, the inventors performed investigations using an in vitro T-cell priming assay based on repeated stimulations of CD8+ T cells with artificial antigen presenting cells (aAPCs) loaded with peptide/MHC complexes and anti-CD28 antibody.
# In order to perform in vitro stimulations by artificial antigen presenting cells loaded with peptide-MHC complex (pMHC) and anti-CD28 antibody, the inventors first isolated CD8+ T cells from fresh HLA-A*02 leukapheresis products via positive selection using CD8 microbeads (Miltenyi Biotec, Bergisch-Gladbach, Germany) of healthy donors obtained from the University clinics Mannheim, Germany, after informed consent.
# PBMCs and isolated CD8+ lymphocytes were incubated in T-cell medium (TCM) until use consisting of RPMI-Glutamax (Invitrogen, Karlsruhe, Germany) supplemented with 10% heat inactivated human AB serum (PAN-Biotech, Aidenbach, Germany), 100 U/ml Penicillin/100 μg/ml Streptomycin (Cambrex, Cologne, Germany), 1 mM sodium pyruvate (CC Pro, Oberdorla, Germany), 20 μg/ml Gentamycin (Cambrex). 2.5 ng/ml IL7 (PromoCell, Heidelberg, Germany) and 10 U/ml IL-2 (Novartis Pharma, Nurnberg, Germany) were also added to the TCM at this step.
# Generation of pMHC/anti-CD28 coated beads, T-cell stimulations and readout was performed in a highly defined in vitro system using four different pMHC molecules per stimulation condition and 8 different pMHC molecules per readout condition.
# The purified co-stimulatory mouse IgG2a anti human CD28 Ab 9.3 (Jung et al., 1987) was chemically biotinylated using Sulfo-N-hydroxysuccinimidobiotin as recommended by the manufacturer (Perbio, Bonn, Germany). Beads used were 5.6 μm diameter streptavidin coated polystyrene particles (Bangs Laboratories, Illinois, USA).
# pMHC used for positive and negative control stimulations were A*0201/MLA-001 (peptide […] (SEQ ID NO. 303) from modified Melan-A/MART-1) and A*0201/DDX5-001 ([…] from DDX5, SEQ ID NO. 304), respectively.
# 800.000 beads/200 μl were coated in 96-well plates in the presence of 4×12.5 ng different biotin-pMHC, washed and 600 ng biotin anti-CD28 were added subsequently in a volume of 200 μl. Stimulations were initiated in 96-well plates by co-incubating 1×10^6 CD8+ T cells with 2×10^5 washed coated beads in 200 μl TCM supplemented with 5 ng/ml IL-12 (PromoCell) for 3 days at 37° C. Half of the medium was then exchanged by fresh TCM supplemented with 80 U/ml IL-2 and incubating was continued for 4 days at 37° C. This stimulation cycle was performed for a total of three times. For the pMHC multimer readout using 8 different pMHC molecules per condition, a two-dimensional combinatorial coding approach was used as previously described (Andersen et al., 2012) with minor modifications encompassing coupling to 5 different fluorochromes. Finally, multimeric analyses were performed by staining the cells with Live/dead near IR dye (Invitrogen, Karlsruhe, Germany), CD8-FITC antibody clone SK1 (BD, Heidelberg, Germany) and fluorescent pMHC multimers. For analysis, a BD LSRII SORP cytometer equipped with appropriate lasers and filters was used. Peptide specific cells were calculated as percentage of total CD8+ cells. Evaluation of multimeric analysis was done using the FlowJo software (Tree Star, Oregon, USA). In vitro priming of specific multimer+CD8+ lymphocytes was detected by comparing to negative control stimulations.
# HLA-A*24 = assay: MHC binding assay by UV-ligand exchange and beta2m ELISA (HLA-A*24); set-up: species or system human; details: peptide exchange yield, binding to HLA-A*24; UV-ligand exchange, beta2m ELISA
# Source text: as §1, §2
Substance,Peptide exchange (HLA-A*02),Wells positive [%] (CD8+ T cells),also measured
1 (LLYPEPWSV; listed as Homo sapiens) [compound 1],++++ (> = 75% = ++++),–,–
3 (KLEENGDLYL; listed as Homo sapiens) [compound 3],++++ (> = 75% = ++++),–,–
5 (GIVAHIQEV; listed as Homo sapiens) [compound 5],–,+ (<20% = +),–
14 (ILAKDLFEI; listed as Homo sapiens) [compound 14],++++ (> = 75% = ++++),–,–
16 (YTLDIPVLFGV; listed as Homo sapiens) [compound 16],++++ (> = 75% = ++++),–,–
18 (ILLDLTDNRL; listed as Homo sapiens) [compound 18],–,+ (<20% = +),–
23 (SLFSDEFKV; listed as Homo sapiens) [compound 23],–,++++ (> = 70% = ++++),–
26 (ALQEELTEL; listed as Homo sapiens) [compound 26],–,+ (<20% = +),–
29 (YLLDPSITL; listed as Homo sapiens) [compound 29],–,+ (<20% = +),–
31 (TITETTVEV; listed as Homo sapiens) [compound 31],–,+ (<20% = +),–
34 (FLLATEVVTV; listed as Homo sapiens) [compound 34],++++ (> = 75% = ++++),–,–
35 (FLLPFSTVYL; listed as Homo sapiens) [compound 35],–,+ (<20% = +),–
51 (LLFSRLCGA; listed as Homo sapiens) [compound 51],++++ (> = 75% = ++++),–,–
84 (ALCPRIHEV; listed as Homo sapiens) [compound 84],++++ (> = 75% = ++++),–,–
90 (FLQDLEQRL; listed as Homo sapiens) [compound 90],–,+ (<20% = +),–
92 (GLLFSLRSV; listed as Homo sapiens) [compound 92],++++ (> = 75% = ++++),–,–
95 (GLLGSLFFL; listed as Homo sapiens) [compound 95],++++ (> = 75% = ++++),–,–
112 (SLGKFTFDV; listed as Homo sapiens) [compound 112],++++ (> = 75% = ++++),–,–
125 (SLADYEHFV; listed as Homo sapiens) [compound 125],++++ (> = 75% = ++++),–,–
126 (QMFQYFITV; listed as Homo sapiens) [compound 126],++++ (> = 75% = ++++),–,–
129 (RLQDILWFL; listed as Homo sapiens) [compound 129],++++ (> = 75% = ++++),–,–
133 (ALLPRLHQL; listed as Homo sapiens) [compound 133],++++ (> = 75% = ++++),–,–
141 (FLDKVLVAA; listed as Homo sapiens) [compound 141],–,+ (<20% = +),–
147 (YLMDDTVEI; listed as Homo sapiens) [compound 147],++++ (> = 75% = ++++),–,–
149 (ILNTHITEL; listed as Homo sapiens) [compound 149],–,+ (<20% = +),–

Substance,Peptide exchange (HLA-A*02),Wells positive [%] (CD8+ T cells),also measured
153 (FISERVEVV; listed as Homo sapiens) [compound 153],++++ (> = 75% = ++++),–,–
158 (HYSQELSLLYL; listed as Homo sapiens) [compound 158],–,+ (<20% = +),Peptide exchange (HLA-A*24): ++++ (> = 75% = ++++)
159 (LYNKGFIYL; listed as Homo sapiens) [compound 159],–,++++ (> = 70% = ++++),Peptide exchange (HLA-A*24): ++++ (> = 75% = ++++)
163 (DYLKGLASF; listed as Homo sapiens) [compound 163],–,+ (<20% = +),Peptide exchange (HLA-A*24): ++++ (> = 75% = ++++)
165 (DYTTWTALL; listed as Homo sapiens) [compound 165],–,+ (<20% = +),Peptide exchange (HLA-A*24): ++++ (> = 75% = ++++)
167 (NYINRILKL; listed as Homo sapiens) [compound 167],–,+ (<20% = +),Peptide exchange (HLA-A*24): ++++ (> = 75% = ++++)
196 (LYIDRPLPYL; listed as Homo sapiens) [compound 196],–,++++ (> = 70% = ++++),–
197 (EYSLFPGQVVI; listed as Homo sapiens) [compound 197],–,+ (<20% = +),–
204 (TYELRYFQI; listed as Homo sapiens) [compound 204],–,+ (<20% = +),Peptide exchange (HLA-A*24): ++++ (> = 75% = ++++)
207 (AYVVFVSTL; listed as Homo sapiens) [compound 207],–,+ (<20% = +),–
218 (YYKSTSSAF; listed as Homo sapiens) [compound 218],–,+ (<20% = +),–
229 (AILAHLNTV; listed as Homo sapiens) [compound 229],++++ (> = 75% = ++++),–,–
230 (KLQNIMMLL; listed as Homo sapiens) [compound 230],–,++++ (> = 70% = ++++),–
268 (QYLGQIQHI; listed as Homo sapiens) [compound 268],–,+ (<20% = +),–
269 (YFIDSTNLKTHF; listed as Homo sapiens) [compound 269],–,+ (<20% = +),–
285 (HYPPVQVLF; listed as Homo sapiens) [compound 285],–,+ (<20% = +),–
289 (KYPVEWAKF; listed as Homo sapiens) [compound 289],–,–,Peptide exchange (HLA-A*24): ++++ (> = 75% = ++++)
291 (KLDETGNSL; listed as Homo sapiens) [compound 291],–,–,in vitro immunogenicity: Wells (CD8+ T cells): + (<20% = +)
292 (GMMTAILGV; listed as Homo sapiens) [compound 292],–,–,in vitro immunogenicity: Wells (CD8+ T cells): + (<20% = +)
293 (FLVDGSWSI; listed as Homo sapiens) [compound 293],–,–,in vitro immunogenicity: Wells (CD8+ T cells): + (<20% = +)
296 (TYVDSSHTI; listed as Homo sapiens) [compound 296],–,–,in vitro immunogenicity: Wells (CD8+ T cells): + (<20% = +)
298 (RYLEGTSCI; listed as Homo sapiens) [compound 298],–,–,in vitro immunogenicity: Wells (CD8+ T cells): + (<20% = +)
300 (AYVLRLETL; listed as Homo sapiens) [compound 300],–,–,in vitro immunogenicity: Wells (CD8+ T cells): + (<20% = +)
301 (AYKPGALTF; listed as Homo sapiens) [compound 301],–,–,in vitro immunogenicity: Wells (CD8+ T cells): + (<20% = +)
